According to US20100075852A1, “HERBICIDE COMBINATION COMPRISING DIMETHOXYTRIAZINYL-SUBSTITUTED DIFLUOROMETHANESULFONYLANILIDES” (BAYER CROPSCIENCE AG, priority 2008, published 2010):
Like-named read-outs stand apart in the source and are kept apart here.

What was measured:
Experiment in all cases: Post-emergence action against weeds, greenhouse pot test, visual scoring
Assay type in all cases: in vivo
Setaria viridis (SETVI) = conditions: 504 h, SETVI, 21 DAT, read-out: % activity found
Protocol: (§1) Seeds or rhizome pieces of mono- and dicotyledonous harmful and useful plants were placed in peat pots (diameter 4 cm) filled with sandy loam and then covered with soil. The pots were kept in a greenhouse under optimum conditions. In addition, harmful plants encountered in paddy rice cultivation were cultivated in pots with a water level 2 cm above the soil surface.
(§2) About three weeks after the start of the cultivation, the test plants were treated at the 2- to 3-leaf stage. The herbicides, formulated as powder or liquid concentrates, were, either alone or in the combinations according to the invention, sprayed in various dosages on to the green parts of the plants using an application rate of 600 l of water/ha (converted). For further cultivation of the plants, the pots were then again kept under optimum conditions in a greenhouse.
(§3) The visual scoring of the herbicidal effects was carried out in intervals up to 21 days after the treatment. Scoring was carried out in percent in comparison to the untreated control plants. 0%=no herbicidal activity, 100%=complete herbicidal activity=complete kill.
(§4) The percentages from the treatments with the herbicides alone (=individual application) and with the combinations according to the invention (=mixtures) were employed to calculate interactions using the method of Colby. When the observed efficacies of the mixtures exceed the formal sum of the values of the tests with individual applications, they also exceed the expected value according to Colby, which is calculated using the formula below (cf. S. R. Colby; in Weeds 15 (1967) pp. 20 to 22):
(§5) • A, B=activity of components A and B in percent at a dosage of a and b g of ai/ha (=gramm of active substance per hectare), respectively. • E=expected value in % at a dosage of a+b g of ai/ha.

Oryza sativa (ORYSA) = conditions: ORYSA, read-out: % activity found; for inhibition at 4 g/ha: 4 g of ai/ha alone; for inhibition at 12 g/ha: 12 g of ai/ha alone
Protocol: as §1, §2, §3, §4, §5

[1] = test system: Alopecurus myosuroides (ALOMY); conditions: ALOMY, read-out: % activity found; for inhibition at 4 g/ha: 4 g of ai/ha alone; for inhibition at 12 g/ha: 12 g of ai/ha alone
Protocol: as §1, §2, §3, §4, §5

Stellaria media (STEME) = conditions: 10 DAT
Protocol: as §1, §2, §3
(§6) The percentages from the treatments with the herbicides alone (=individual application) and with the combinations according to the invention (=mixtures) were employed to calculate interactions using the method of Colby.
as §5

[2] = test system: Abuthilon theophrasti (ABUTH); conditions: 21 DAT, rate (5) A-1 12
Protocol: as §1, §2, §3, §6, §5

[3] = test system: Triticum aestivum (TRZAS); conditions: for (7) activity found: rate (5) A-1 12; for inhibition at 4 g/ha / inhibition at 12 g/ha: Triticum aestivum, post-emergence, read-out: % activity found; for inhibition at 4 g/ha: 4 g of ai/ha alone; for inhibition at 12 g/ha: 12 g of ai/ha alone
Protocol: as §1, §2, §3, §6, §5

[4] = test system: Cyperus esculentus (CYPES); conditions: CYPES, 21 DAT
Protocol: as §1, §2, §3, §6, §5

Zea mays (ZEAMX) = conditions: ZEAMX; for inhibition at 4 g/ha / inhibition at 12 g/ha: Zea mays, post-emergence, read-out: % activity found; for inhibition at 4 g/ha: 4 g of ai/ha alone; for inhibition at 12 g/ha: 12 g of ai/ha alone
Protocol: as §1, §2, §3, §6, §5

[5] = test system: Fallopia (ex Polygonum) convolvulus (POLCO); conditions: POLCO, 21 DAT
Protocol: as §1, §2, §3, §6, §5

Viola tricolor (VIOTR) = conditions: for (7) activity found: rate (5) A-1 12
Protocol: as §1, §2, §3, §6, §5

Avena fatua (AVEFA) = conditions: AVEFA; for inhibition at 4 g/ha / inhibition at 12 g/ha: Avena fatua, post-emergence, read-out: % activity found; for inhibition at 4 g/ha: 4 g of ai/ha alone; for inhibition at 12 g/ha: 12 g of ai/ha alone
Protocol: as §1, §2, §3, §6, §5

[6] = test system: Pharbitis purpurea (PHBPU); conditions: 21 DAT
Protocol: as §1, §2, §3, §6, §5

[7] = test system: Matricaria inodora (MATIN); conditions: MATIN, 21 DAT
Protocol: as §1, §2, §3, §6, §5

[8] = test system: Lolium multiflorum (LOLMU); conditions: LOLMU; for inhibition at 4 g/ha / inhibition at 12 g/ha: Lolium multiflorum, post-emergence, read-out: % activity found; for inhibition at 4 g/ha: 4 g of ai/ha alone; for inhibition at 12 g/ha: 12 g of ai/ha alone
Protocol: as §1, §2, §3, §6, §5

Veronica persica (VERPE) = conditions: 21 DAT, rate (5) A-1 12
Protocol: as §1, §2, §3, §6, §5

`COc1nc(OC)nc(C(=O)c2cccc(F)c2N(C)S(=O)(=O)C(F)F)n1` [A-1] gave an inhibition at 4 g/ha (Setaria viridis (SETVI); 4 g of ai/ha alone) of 0%, an inhibition at 12 g/ha (Setaria viridis (SETVI); 12 g of ai/ha alone) of 20% and an inhibition at 4 g/ha (Oryza sativa (ORYSA); 240 h, 10 DAT) of 10%. For the same compound, the inhibition at 12 g/ha (Oryza sativa (ORYSA); 240 h, 10 DAT) was 10%, the inhibition at 4 g/ha (Oryza sativa (ORYSA); 504 h, 21 DAT) was 0% and the inhibition at 12 g/ha (Oryza sativa (ORYSA); 504 h, 21 DAT) was 10%. For the same compound, the inhibition at 4 g/ha ([1]; 240 h, 10 DAT) was 40%, the inhibition at 12 g/ha ([1]; 240 h, 10 DAT) was 40% and the inhibition at 4 g/ha ([1]; 504 h, 21 DAT) was 40%. The inhibition at 12 g/ha ([1]; 504 h, 21 DAT) was 50%, the “(7) activity found” value (Stellaria media (STEME); rate (5) A-1 4) was 70% and the “(7) activity found” value (Stellaria media (STEME); rate (5) A-1 12) was 70%. For the same compound, the “(7) activity found” value [2] was 85%, the “(7) activity found” value ([3]; 10 DAT) was 0% and the “(7) activity found” value ([3]; 21 DAT) was 0%. For the same compound, the inhibition at 4 g/ha ([3]; 240 h, 10 DAT) was 0%, the inhibition at 12 g/ha ([3]; 240 h, 10 DAT) was 0% and the inhibition at 4 g/ha ([3]; 504 h, 21 DAT) was 0%. The inhibition at 12 g/ha ([3]; 504 h, 21 DAT) was 0%, the “(7) activity found” value ([4]; rate (5) A-1 4) was 80% and the “(7) activity found” value ([4]; rate (5) A-1 12) was 80%. The “(7) activity found” value ([4]; rate (5) A-1 12 (Table 85)) was 80%, the inhibition at 4 g/ha ([4]; Cyperus esculentus, post-emergence, 504 h, 4 g of ai/ha alone, read-out: % activity found) was 80% and the inhibition at 12 g/ha ([4]; Cyperus esculentus, post-emergence, 504 h, 12 g of ai/ha alone, read-out: % activity found) was 80%. For the same compound, the “(7) activity found” value (Zea mays (ZEAMX); 10 DAT, rate (5) A-1 4) was 0%, the “(7) activity found” value (Zea mays (ZEAMX); 10 DAT, rate (5) A-1 12) was 0% and the “(7) activity found” value (Zea mays (ZEAMX); 21 DAT, rate (5) A-1 4) was 0%. For the same compound, the “(7) activity found” value (Zea mays (ZEAMX); 21 DAT, rate (5) A-1 4 (Table 80)) was 0%, the “(7) activity found” value (Zea mays (ZEAMX); 21 DAT, rate (5) A-1 12) was 0% and the “(7) activity found” value (Zea mays (ZEAMX); 21 DAT, rate (5) A-1 12 (Table 80)) was 0%. It also gave an inhibition at 4 g/ha (Zea mays (ZEAMX); 240 h, 10 DAT) of 0%, an inhibition at 12 g/ha (Zea mays (ZEAMX); 240 h, 10 DAT) of 0% and an inhibition at 4 g/ha (Zea mays (ZEAMX); 504 h, 21 DAT) of 0%. The inhibition at 12 g/ha (Zea mays (ZEAMX); 504 h, 21 DAT) was 0%, the inhibition at 4 g/ha ([5]; Fallopia convolvulus, post-emergence, 504 h, 4 g of ai/ha alone, read-out: % activity found) was 75% and the inhibition at 12 g/ha ([5]; Fallopia convolvulus, post-emergence, 504 h, 12 g of ai/ha alone, read-out: % activity found) was 70%. The “(7) activity found” value ([5]; rate (5) A-1 4) was 75%, the “(7) activity found” value ([5]; rate (5) A-1 12) was 70% and the “(7) activity found” value (Viola tricolor (VIOTR); 10 DAT) was 20%. The “(7) activity found” value (Viola tricolor (VIOTR); 21 DAT) was 10%, the inhibition at 4 g/ha (Viola tricolor (VIOTR); Viola tricolor, post-emergence, 504 h, 21 DAT, 4 g of ai/ha alone, read-out: % activity found) was 0% and the inhibition at 12 g/ha (Viola tricolor (VIOTR); Viola tricolor, post-emergence, 504 h, 21 DAT, 12 g of ai/ha alone, read-out: % activity found) was 10%. The “(7) activity found” value (Avena fatua (AVEFA); 21 DAT, rate (5) A-1 4) was 10%, the “(7) activity found” value (Avena fatua (AVEFA); 21 DAT, rate (5) A-1 12) was 30% and the inhibition at 4 g/ha (Avena fatua (AVEFA); 240 h, 10 DAT) was 40%. The inhibition at 12 g/ha (Avena fatua (AVEFA); 240 h, 10 DAT) was 50%, the inhibition at 4 g/ha (Avena fatua (AVEFA); 504 h, 21 DAT) was 10% and the inhibition at 12 g/ha (Avena fatua (AVEFA); 504 h, 21 DAT) was 30%. For the same compound, the “(7) activity found” value ([6]; rate (5) A-1 4) was 60%, the “(7) activity found” value ([6]; rate (5) A-1 12) was 65% and the “(7) activity found” value ([7]; rate (5) A-1 4) was 50%. The “(7) activity found” value ([7]; rate (5) A-1 12) was 60%, the inhibition at 4 g/ha ([7]; Tripleurospermum inodorum, post-emergence, 504 h, 4 g of ai/ha alone, read-out: % activity found) was 50% and the inhibition at 12 g/ha ([7]; Tripleurospermum inodorum, post-emergence, 504 h, 12 g of ai/ha alone, read-out: % activity found) was 60%. For the same compound, the “(7) activity found” value ([8]; 10 DAT, rate (5) A-1 4) was 0%, the “(7) activity found” value ([8]; 10 DAT, rate (5) A-1 12) was 10% and the inhibition at 4 g/ha ([8]; 240 h, 10 DAT) was 0%. For the same compound, the inhibition at 12 g/ha ([8]; 240 h, 10 DAT) was 10%, the inhibition at 4 g/ha ([8]; 504 h, 21 DAT) was 0% and the inhibition at 12 g/ha ([8]; 504 h, 21 DAT) was 10%. The “(7) activity found” value (Veronica persica (VERPE)) was 40%.
